Test results from patent US20140220556A1, “Method of Design and Synthesis of a New Drug” (priority 2013, published 2014).

Experiments:
HeLa cells = assay: Effect of Antican on HeLa cells; format: cell-based
Source text: In establishing the minimum concentration of Antican that could slow the growth of cells, a comparison was made between the number of surviving cells and the concentration of Antican in the solution.

benzidine skin sarcoma = assay: Anticancer activity on benzidine skin sarcoma; format: in vivo, Barbados mice
Experimental: Before applying it to the silica gel, 7 mL of a solution of 2% benzidine and 0.9% sodium chloride were added until an opalescent suspension was formed (1 g silica gel for 5 mL NaCl solution). Twenty-five Barbados mice of both sexes with weight of 18-20 g that were kept on a vivarium diet were administered benzidine and phorbol acetate immobilized on silica gel subcutaneously near the neck. After two weeks, 18 animals had developed tumors of different sizes in the form of a small bump on the neck near the silica gel granulomas. Each group of animals was administered the corresponding compound parenterally, at a dose of 100 μg/kg weight, twice a day for two weeks, starting 16 days after administration of the carcinogen.

[1] = test system: Ehrlich's ascites adenocarcinoma; assay: Antitumor activity in Ehrlich's ascites adenocarcinoma; format: in vivo, Barbados mice; settings: experimental animals, n = 10
Experimental: The antitumor activity of the compositions were studied in models of Ehrlich's ascites carcinoma in young Barbados mice of both sexes with weights between 15-17 g (68 individuals), which were kept on a vivarium diet.
45 mice were inoculated from a mouse with adenocarcinoma using an insulin syringe with 0.1 mL ascitic fluid in the region of the liver.
Ten mice were administered Antican (see Table 8).

[2] = FDA statistics, third stage of clinical tests; cited from earlier work

Row | SMILES | Number of Live Cells after Incubation, % (HeLa cells; dose 2 μg/mL) [%] | Number of Live Cells after Incubation, ±1000 (HeLa cells; dose 2 μg/mL) [Millions] | Number of Live Cells after Incubation, % (HeLa cells; dose 4 μg/mL) [%] | Number of Live Cells after Incubation, ±1000 (HeLa cells; dose 4 μg/mL) [Millions] | Number of Live Cells after Incubation, % (HeLa cells; dose 6 μg/mL) [%] | Number of Live Cells after Incubation, ±1000 (HeLa cells; dose 6 μg/mL) [Millions] | Number of Live Cells after Incubation, % (HeLa cells; dose 8 μg/mL) [%] | Number of Live Cells after Incubation, ±1000 (HeLa cells; dose 8 μg/mL) [Millions] | Number of Live Cells after Incubation, % (HeLa cells; dose 10 μg/mL) [%] | Number of Live Cells after Incubation, ±1000 (HeLa cells; dose 10 μg/mL) [Millions] | Number of Live Cells after Incubation, % (HeLa cells; dose 12 μg/mL) [%] | Number of Live Cells after Incubation, ±1000 (HeLa cells; dose 12 μg/mL) [Millions] | Weight of Animal, After Treatment (benzidine skin sarcoma; 100 μg/kg parenterally twice a day for two weeks, n = 7) [g] | mice died (benzidine skin sarcoma; after treatment, n = 7) | Weight of Animal, Before Treatment (benzidine skin sarcoma; before treatment, n = 7) [g] | Animal Survival (benzidine skin sarcoma; benzidine skin sarcoma, n = 10) [days] | Time of Death of Animals after the First Injection, Average Value ([1]; Liposomes +) [days] | Time of Death of Animals after the First Injection, Average Value ([1]; Liposomes −) [days] | average effectiveness [2] [%]
1 | CC(=O)O[C@@]12CO[C@@H]1C[C@H](O)[C@@]1(C)C(=O)[C@H](O)C3=C(C)[C@@H](OC(=O)[C@H](O)[C@@H](NC(=O)OC(C)(C)C)c4ccccc4)C[C@@](O)([C@@H](OC(=O)c4ccccc4)[C@H]21)C3(C)C [Taxotere] | 100 | 150000 | 98 | 150000 | 97 | 145000 | 89 | 135000 | 82 | 130000 | 94 | 153000 | 23 ± 1.1 | 2 | 28 ± 1.2 | 28 ± 1.1 | 15 ± 0.5 | 14 ± 0.12 | 
2 | CN1CC[C@]23c4c5ccc(O)c4O[C@H]2[C@@H](O)C=C[C@H]3[C@H]1C5 [morphine] |  |  |  |  |  |  |  |  |  |  |  |  |  |  |  |  |  |  | 75
